Results published in US20260013501A1, “HERBICIDAL DERIVATIVES” (SYNGENTA CROP PROTECTION AG, priority 2022, published 2026).

Experiments:
Format in all cases: in vivo
[1] = tested on: Echinochloa crus-galli (ECHCG); experiment: Pre-emergence Test (Table B1), ECHCG; settings: evaluated after 13 days
[2] = tested on: Ipomoea hederacea (IPOHE); experiment: Pre-emergence Test (Table B1), IPOHE; settings: evaluated after 13 days
Zea mays (ZEAMX) [3] = experiment: Pre-emergence Test (Table B1), ZEAMX; settings: evaluated after 13 days
[4] = tested on: Amaranthus retoflexus (AMARE); experiment: Pre-emergence Test (Table B1), AMARE; settings: evaluated after 13 days
[5] = tested on: Amaranthus palmeri (AMAPA); experiment: Pre-emergence Test (Table B1), AMAPA; settings: evaluated after 13 days
[6] = tested on: Echinochloa crus-galli (ECHCG); experiment: Post-emergence Test (Table B2), ECHCG; set-up: key: 5-point damage scale: 5=81-100%, 4=61-80%, 3=41-60%, 2=21-40%, 1=0-20%; settings: evaluated after 13 days
Experimental: (§1) Seeds of a variety of test species are sown in standard soil in pots (Ipomoea hederacea (IPOHE), Zea mays (ZEAMX), Echinochloa crus-galli (ECHCG), Amaranthus palmeri (AMAPA), (Amaranthus retoflexus (AMARE), and (Setaria faberi (SETFA)). After 8 days cultivation under controlled conditions in a glasshouse (at 24° C./16° C., day/night; 14 hours light; 65% humidity), the plants are sprayed with an aqueous spray solution derived from the formulation of the technical active ingredient in acetone/water (50:50) solution containing 0.5% Tween 20 (polyoxyethelyene sorbitan monolaurate, CAS RN 9005-64-5). Rate of application is shown in g/ha in the tables below. The test plants are then grown in a glasshouse under controlled conditions in a glasshouse (at 24° C./16° C., day/night; 14 hours light; 65% humidity) and watered twice daily. After 13 days the test is evaluated for the percentage damage caused to the plant. The biological activities are shown in the following table on a five-point scale (5=81-100%; 4=61-80%; 3=41-60%; 2=21-40%; 1=0-20%; -=not tested).

Zea mays (ZEAMX) [7] = experiment: Post-emergence Test (Table B2), ZEAMX; set-up: key: 5-point damage scale: 5=81-100%, 4=61-80%, 3=41-60%, 2=21-40%, 1=0-20%; settings: evaluated after 13 days
Experimental: as §1

[8] = tested on: Amaranthus palmeri (AMAPA); experiment: Post-emergence Test (Table B2), AMAPA; set-up: key: five-point scale: 5=81-100%, 4=61-80%, 3=41-60%, 2=21-40%, 1=0-20% damage; settings: rate 250 g/Ha, evaluated after 13 days
Experimental: as §1

CCn1c(Cc2ccc(C(F)(F)F)cc2)cc(=O)c(C(=O)O)c1-c1ccc(Cl)c(Cl)c1 [Compound 6, 2-(3,4-dichlorophenyl)-1-ethyl-4-oxo-6-[[4-(trifluoromethyl)phenyl]methyl]pyridine-3-carboxylic acid]
0: Pre-emergence Test, percentage damage caused to the plant (five-point scale), ECHCG ([1]; Rate 1000 g/Ha) | Pre-emergence Test, percentage damage caused to the plant (five-point scale), IPOHE ([2]; Rate 1000 g/Ha) | Pre-emergence Test, percentage damage caused to the plant (five-point scale), ZEAMX (Zea mays (ZEAMX) [3]; Rate 1000 g/Ha)

CCn1c(Cc2nccc(OC)n2)cc(=O)c(C(=O)O)c1-c1ccc(Cl)c(Cl)c1 [Compound 20, 2-(3,4-dichlorophenyl)-1-ethyl-6-[(4-methoxypyrimidin-2-yl)methyl]-4-oxo-pyridine-3-carboxylic acid]
0: Pre-emergence Test, percentage damage caused to the plant (five-point scale), AMARE ([4]; Rate 250 g/Ha) | Pre-emergence Test, percentage damage caused to the plant (five-point scale), ECHCG ([1]; Rate 250 g/Ha) | Pre-emergence Test, percentage damage caused to the plant (five-point scale), AMAPA ([5]; Rate 250 g/Ha) | Pre-emergence Test, percentage damage caused to the plant (five-point scale), ZEAMX (Zea mays (ZEAMX) [3]; Rate 250 g/Ha)

CCn1c(Cc2ncccn2)cc(=O)c(C(=O)O)c1-c1ccc(Cl)c(Cl)c1 [Compound 22, 2-(3,4-dichlorophenyl)-1-ethyl-4-oxo-6-(pyrimidin-2-ylmethyl)pyridine-3-carboxylic acid]
0: Pre-emergence Test, percentage damage caused to the plant (five-point scale), AMARE ([4]; Rate 250 g/Ha) | Pre-emergence Test, percentage damage caused to the plant (five-point scale), ECHCG ([1]; Rate 250 g/Ha) | Pre-emergence Test, percentage damage caused to the plant (five-point scale), AMAPA ([5]; Rate 250 g/Ha) | Pre-emergence Test, percentage damage caused to the plant (five-point scale), ZEAMX (Zea mays (ZEAMX) [3]; Rate 250 g/Ha)

CCn1c(Cc2ccc(OC(F)(F)F)cc2)cc(=O)c(C(=O)O)c1-c1ccc(Cl)c(Cl)c1 [Compound 26, 2-(3,4-dichlorophenyl)-1-ethyl-4-oxo-6-[[4-(trifluoromethoxy)phe-nyl]methyl]pyridine-3-carboxylic acid]
0: percentage damage caused to the plant, ECHCG ([6]; rate 1000 g/Ha) | percentage damage caused to the plant, ZEAMX (Zea mays (ZEAMX) [7]; rate 1000 g/Ha)

CCn1c(Cc2ccc(OC)nc2)cc(=O)c(C(=O)O)c1-c1ccc(Cl)c(Cl)c1 [Compound 40, 2-(3,4-dichlorophenyl)-1-ethyl-6-[(6-methoxy-3-pyridyl)methyl]-4-oxo-pyridine-3-carboxylic acid]
0: Pre-emergence Test, percentage damage caused to the plant (five-point scale), ECHCG ([1]; Rate 250 g/Ha) | Pre-emergence Test, percentage damage caused to the plant (five-point scale), IPOHE ([2]; Rate 250 g/Ha) | percentage damage caused to the plant, ECHCG ([6]; rate 250 g/Ha) | Pre-emergence Test, percentage damage caused to the plant (five-point scale), ZEAMX (Zea mays (ZEAMX) [3]; Rate 250 g/Ha)

CCn1c(Cc2cncc(Cl)n2)cc(=O)c(C(=O)O)c1-c1ccc(Cl)c(Cl)c1 [Compound 43, 6-[(6-chloropyrazin-2-yl)methyl]-2-(3,4-dichlorophenyl)-1-ethyl-4-oxo-pyridine-3-carboxylic acid]
0: percentage damage caused to the plant, AMAPA [8] | Pre-emergence Test, percentage damage caused to the plant (five-point scale), AMAPA ([5]; Rate 250 g/Ha) | Pre-emergence Test, percentage damage caused to the plant (five-point scale), ZEAMX (Zea mays (ZEAMX) [3]; Rate 250 g/Ha)

CCn1c(Cc2cc(=O)[nH]cn2)cc(=O)c(C(=O)O)c1-c1ccc(Cl)c(Cl)c1 [Compound 45, 2-(3,4-dichlorophenyl)-1-ethyl-4-oxo-6-[(6-oxo-1H-pyrimidin-4-yl)methyl]pyridine-3-carboxylic acid]
0: Pre-emergence Test, percentage damage caused to the plant (five-point scale), AMARE ([4]; Rate 250 g/Ha) | Pre-emergence Test, percentage damage caused to the plant (five-point scale), ECHCG ([1]; Rate 250 g/Ha) | percentage damage caused to the plant, ECHCG ([6]; rate 250 g/Ha) | Pre-emergence Test, percentage damage caused to the plant (five-point scale), AMAPA ([5]; Rate 250 g/Ha) | Pre-emergence Test, percentage damage caused to the plant (five-point scale), ZEAMX (Zea mays (ZEAMX) [3]; Rate 250 g/Ha)

CCn1c(Cc2ccc(C(=O)OC)cn2)cc(=O)c(C(=O)O)c1-c1ccc(Cl)c(Cl)c1 [Compound 46, 2-(3,4-dichlorophenyl)-1-ethyl-6-[(5-methoxycarbonyl-2-pyridyl)methyl]-4-oxo-pyridine-3-carboxylic acid]
0: percentage damage caused to the plant, ECHCG ([6]; rate 250 g/Ha) | Pre-emergence Test, percentage damage caused to the plant (five-point scale), ZEAMX (Zea mays (ZEAMX) [3]; Rate 250 g/Ha)

CCn1c(Cc2ccc(S(C)(=O)=O)cc2)cc(=O)c(C(=O)O)c1-c1ccc(Cl)c(Cl)c1 [Compound 72, 2-(3,4-dichlorophenyl)-1-ethyl-6-[(4-methylsulfonylphenyl)methyl]-4-oxo-pyridine-3-carboxylic acid]
0: Pre-emergence Test, percentage damage caused to the plant (five-point scale), ECHCG ([1]; Rate 250 g/Ha) | Pre-emergence Test, percentage damage caused to the plant (five-point scale), IPOHE ([2]; Rate 250 g/Ha) | percentage damage caused to the plant, ECHCG ([6]; rate 250 g/Ha) | percentage damage caused to the plant, ZEAMX (Zea mays (ZEAMX) [7]; rate 250 g/Ha)

CCn1c(Cc2cc(OC)ccc2F)cc(=O)c(C(=O)O)c1-c1ccc(Cl)c(Cl)c1 [Compound 90, 2-(3,4-dichlorophenyl)-1-ethyl-6-[(2-fluoro-5-methoxy-phenyl)methyl]-4-oxo-pyridine-3-carboxylic acid]
0: Pre-emergence Test, percentage damage caused to the plant (five-point scale), AMARE ([4]; Rate 1000 g/Ha) | percentage damage caused to the plant, ECHCG ([6]; rate 1000 g/Ha) | percentage damage caused to the plant, ZEAMX (Zea mays (ZEAMX) [7]; rate 1000 g/Ha) | Pre-emergence Test, percentage damage caused to the plant (five-point scale), AMAPA ([5]; Rate 1000 g/Ha) | Pre-emergence Test, percentage damage caused to the plant (five-point scale), ZEAMX (Zea mays (ZEAMX) [3]; Rate 1000 g/Ha)

CCn1c(Cc2ncc(SC)cn2)cc(=O)c(C(=O)O)c1-c1ccc(Cl)c(Cl)c1 [Compound 99, 2-(3,4-dichlorophenyl)-1-ethyl-6-[(5-methylsulfanylpyrimidin-2-yl)methyl]-4-oxo-pyridine-3-carboxylic acid]
0: Pre-emergence Test, percentage damage caused to the plant (five-point scale), ECHCG ([1]; Rate 250 g/Ha) | Pre-emergence Test, percentage damage caused to the plant (five-point scale), IPOHE ([2]; Rate 250 g/Ha) | Pre-emergence Test, percentage damage caused to the plant (five-point scale), ZEAMX (Zea mays (ZEAMX) [3]; Rate 250 g/Ha)

CCn1c(Cc2ccc(C#N)c(F)n2)cc(=O)c(C(=O)O)c1-c1ccc(Cl)c(Cl)c1 [Compound 112, 6-[(5-cyano-6-fluoro-2-pyridyl)methyl]-2-(3,4-dichlorophenyl)-1-ethyl-4-oxo-pyridine-3-carboxylic acid]
0: Pre-emergence Test, percentage damage caused to the plant (five-point scale), AMARE ([4]; Rate 62.5 g/Ha) | Pre-emergence Test, percentage damage caused to the plant (five-point scale), ECHCG ([1]; Rate 62.5 g/Ha) | Pre-emergence Test, percentage damage caused to the plant (five-point scale), IPOHE ([2]; Rate 62.5 g/Ha) | Pre-emergence Test, percentage damage caused to the plant (five-point scale), AMAPA ([5]; Rate 62.5 g/Ha) | Pre-emergence Test, percentage damage caused to the plant (five-point scale), ZEAMX (Zea mays (ZEAMX) [3]; Rate 62.5 g/Ha)

CCn1c(Cc2cccc(C(C)=O)n2)cc(=O)c(C(=O)O)c1-c1ccc(Cl)c(Cl)c1 [Compound 116, 6-[(6-acetyl-2-pyridyl)methyl]-2-(3,4-dichlorophenyl)-1-ethyl-4-oxo-pyridine-3-carboxylic acid]
0: percentage damage caused to the plant, AMAPA [8] | Pre-emergence Test, percentage damage caused to the plant (five-point scale), IPOHE ([2]; Rate 250 g/Ha)

CCn1c(Cc2nc(C(=O)OC)co2)cc(=O)c(C(=O)O)c1-c1ccc(Cl)c(Cl)c1 [Compound 148, 2-(3,4-dichlorophenyl)-1-ethyl-6-[(4-methoxycarbonyloxazol-2-yl)methyl]-4-oxo-pyridine-3-carboxylic acid]
0: percentage damage caused to the plant, AMAPA [8] | Pre-emergence Test, percentage damage caused to the plant (five-point scale), ECHCG ([1]; Rate 250 g/Ha) | Pre-emergence Test, percentage damage caused to the plant (five-point scale), IPOHE ([2]; Rate 250 g/Ha) | percentage damage caused to the plant, ZEAMX (Zea mays (ZEAMX) [7]; rate 250 g/Ha) | Pre-emergence Test, percentage damage caused to the plant (five-point scale), ZEAMX (Zea mays (ZEAMX) [3]; Rate 250 g/Ha)

CCn1c(Cc2cnc(C3CC3)nc2)cc(=O)c(C(=O)O)c1-c1ccc(Cl)c(Cl)c1 [Compound 151, 6-[(2-cyclopropylpyrimidin-5-yl)methyl]-2-(3,4-dichlorophenyl)-1-ethyl-4-oxo-pyridine-3-carboxylic acid]
0: percentage damage caused to the plant, AMAPA [8] | Pre-emergence Test, percentage damage caused to the plant (five-point scale), ECHCG ([1]; Rate 250 g/Ha) | Pre-emergence Test, percentage damage caused to the plant (five-point scale), IPOHE ([2]; Rate 250 g/Ha) | percentage damage caused to the plant, ZEAMX (Zea mays (ZEAMX) [7]; rate 250 g/Ha) | Pre-emergence Test, percentage damage caused to the plant (five-point scale), ZEAMX (Zea mays (ZEAMX) [3]; Rate 250 g/Ha)
